Patent US20200256853A1, “Models of Reconstructed Sensitive Skin” (Laboratoires Expanscience, priority 2017, published 2020)

Legend:
Assay type in all cases: cell-based
[1] = test system: reconstructed human epidermises; assay: Determination of polyunsaturated fatty acids (PUFAs) in reconstructed epidermises (GC/MS), Example 2; details: Lactic acid 0.6%
Procedure: (§1) Reconstructed human epidermises were obtained from the keratinocytes of a donor using the method derived from Poumay et al. (Arch Dermatol Res 2004; 296:203-11). After 2 days of immersion culture, the reconstructed human epidermises were cultured at the air/liquid interface for 10 days.
(§2) Screening of polyunsaturated fatty acids (PUFAs) expressed by the epidermis was carried out by GC/MS analysis of samples obtained after grinding the epidermises (n=2).
(§3) The amounts were normalized by C16:0 (palmitic acid), which is representative of the overall lipid content of the epidermis.

[2] = test system: reconstructed human epidermises; assay: Gene expression in reconstructed epidermises (qRT-PCR); details: Lactic acid 0.6%; control = 100
Procedure: Reconstructed human epidermises were obtained from the keratinocytes of a donor using the method derived from Poumay et al. (Arch Dermatol Res 2004; 296:203-11). After 2 days of immersion culture, the reconstructed human epidermises were cultured at the air/liquid interface for 10 days. […] Gene expression of inflammatory markers and of markers of innate immunity and defense was evaluated by real-time quantitative PCR (qRT-PCR) on messenger RNAs extracted from epidermis (n=2). Gene expression of the innate immunity and defense markers, beta-defensin 2 hBD2, or Toll-like receptor 2, was also evaluated in the same way. The gene expression analysis was performed in duplicate using a PCR array. The quantitative analysis of gene expression was based on the analysis of threshold cycles; relative expression (RE) was expressed in arbitrary units according to the following formula: RE=(½ number of cycles)×10^6

[3] = test system: reconstructed human epidermises; assay: Immunolabeling of involucrin in reconstructed epidermis; details: Lactic acid 0.6%; fluorescence intensity vs. control
Procedure: Reconstructed human epidermises were obtained from the keratinocytes of a donor using the method derived from Poumay et al. (Arch Dermatol Res 2004; 296:203-11). After 2 days of immersion culture, the reconstructed human epidermises were cultured at the air/liquid interface for 10 days. […] On the other hand, involucrin was stained by immunofluorescence (Alexa-488; green dye), the nuclei were stained by propidium iodide (red dye). The involucrin staining was quantified by measuring the fluorescence intensity reported on the surface of the living layers of the epidermis.

[4] = test system: reconstructed human epidermises; assay: Viability of reconstructed epidermises (MTT); details: Lactic acid 0.6% topical, 48 h; control 100%; donor
Procedure: as §1
The viability of the epidermises was assessed by an MTT metabolism test (n=2). The optical density (OD) at 540 nm is proportional to the amount of living cells and their metabolic activity.

[5] = test system: reconstructed Sensitive Skin model (reconstructed human epidermises treated with 0.6% lactic acid); assay: Determination of PUFAs (GC/MS) in reconstructed Sensitive Skin model, Example 3
Procedure: as §2, §3
(§4) Reconstructed human epidermises were obtained from the keratinocytes of a […] donor using the method derived from Poumay et al. (Arch Dermatol Res 2004; 296:203-11). After 2 days of immersion culture, the reconstructed human epidermises were cultured at the air/liquid interface for 10 days.
(§5) Epidermises at differentiation day 10 was treated or not (control) systemically with the test compounds and incubated for 24 hours.
(§6) Same protocol as described in Example 2. • Determination of Poly-Unsaturated Fatty Acids (PUFAs) (n=2)
Same protocol as described in Example 2.

[6] = test system: reconstructed human epidermises; assay: Intracellular determinations of inflammatory markers (ELISA), Example 2; details: Lactic acid 0.6%
Procedure: as §1
(§7) Intracellular amounts of IL-1α, IL8 and IL1-RA were determined by ELISA (R&D Systems) in ground epidermis (n=2).

[7] = test system: reconstructed human epidermises; assay: Determinations of released inflammatory markers, Example 2; details: Lactic acid 0.6%
Procedure: Reconstructed human epidermises were obtained from the keratinocytes of a donor using the method derived from Poumay et al. (Arch Dermatol Res 2004; 296:203-11). After 2 days of immersion culture, the reconstructed human epidermises were cultured at the air/liquid interface for 10 days. […] The amount of inflammatory markers present in culture supernatants was assessed (n=6) using CBA kits (BD Biosciences) for IL-1 alpha (IL1α) and IL-8; and ELISA kits for VEGF (R&D Systems) and PGE2 (Enzo).

[8] = test system: reconstructed Sensitive Skin model (reconstructed human epidermises treated with 0.6% lactic acid); assay: Determinations of released inflammatory mediators (ELISA) in reconstructed Sensitive Skin model, Example 3
Procedure: as §4, §5
(§8) The amount of inflammatory mediators IL-1alpha (IL1α), IL-8 and PGE2 present in skin culture supernatants was evaluated using ELISA kits (R&D Systems). • Evaluations of intracellular inflammatory markers IL-1α, IL8 and IL1-RA (n=2)

[9] = test system: reconstructed Sensitive Skin model (reconstructed human epidermises treated with 0.6% lactic acid); assay: Intracellular measurements of inflammatory mediators (ELISA) in reconstructed Sensitive Skin model, Example 3
Procedure: as §7, §4, §5, §8, §6

[10] = Lactic acid 0.6%, change vs. control
[11] = GLY 0.005% + lactic acid 0.6%, change vs. lactic acid
[12] = GLY 0.01% + lactic acid 0.6%, change vs. lactic acid

For CC(O)C(=O)O (centres unmarked) [Lactic acid, lactic acid], the “C18:1 Change vs. control” value [1] was “+20%”, the “C18:1 amount normalized to C16:0” value [1] was 0.226 and the “C18:2 LA Change vs. control” value [1] was “+19%”. The “C18:2 LA amount normalized to C16:0” value [1] was 0.216, the “C20:4 AA Change vs. control” value [1] was “+42%” and the “C20:4 AA amount normalized to C16:0” value [1] was 0.050. The ADCYAP1 gene expression [2] was 117, the DEFB4A gene expression [2] was 6 and the IL1A gene expression [2] was 240. For the same molecule, the IL1B gene expression [2] was 195, the IL1RN gene expression [2] was 144 and the IL8 gene expression [2] was 649. For the same molecule, the PLA2G2F2F gene expression [2] was 129, the PTGS2 gene expression [2] was 182 and the THBS1 gene expression [2] was 181. The TLR2 gene expression [2] was 54, the TNF gene expression [2] was 105 and the VEGF-A gene expression [2] was 138. The “Decrease in the expression level of involucrin” value [3] was −22%, the Viability [4] was 66% and the “C18:1 Mean ± SD, amount normalized to C16:0” value ([5]; Lactic acid 0.6% topical, 48 h) was 0.3880. The “C18:2 LA Mean ± SD, amount normalized to C16:0” value ([5]; Lactic acid 0.6% topical, 48 h) was 0.2130, the “C20:4 AA Mean ± SD, amount normalized to C16:0” value ([5]; Lactic acid 0.6% topical, 48 h) was 0.0575 and the “C18:1 Change” value [5, 10] was “+110%”. The “C18:2 LA Change” value [5, 10] was “+134%”, the “C20:4 AA Change” value [5, 10] was “+113%” and the “Intracellular IL1-RA Change vs. control” value [6] was “+1242%”. The “Intracellular IL1-alpha Change vs. control” value [6] was “+806%”, the “Intracellular IL8 Change vs. control” value [6] was “+390%” and the “Intracellular IL1-RA” value ([6]; 48 h) was 31243 pg/mg protein. For the same molecule, the “Intracellular IL1-alpha” value ([6]; 48 h) was 794 pg/mg protein, the “Intracellular IL8” value ([6]; 48 h) was 52.1 pg/mg protein and the “Released IL1-alpha Change vs. control” value [7] was “+221%”. For the same molecule, the “Released IL8 Change vs. control” value [7] was “+84%”, the “Released PGE2 Change vs. control” value [7] was “+207%” and the “Released VEGF Change vs. control” value [7] was “+156%”. The “Released IL1-alpha” value ([7]; 48 h, culture supernatant) was 23 ± 7 pg/mL, the “Released IL8” value ([7]; 48 h, culture supernatant) was 120 ± 18 pg/mL and the “Released PGE2” value ([7]; 48 h, culture supernatant) was 149 ± 36 pg/mL. The “Released VEGF” value ([7]; 48 h, culture supernatant) was 1109 ± 45 pg/mL, the “Released IL1-alpha Mean ± Standard deviation” value ([8]; Lactic acid 0.6% topical, 48 h) was 68 ± 34 pg/mL and the “Released IL8 Mean ± Standard deviation” value ([8]; Lactic acid 0.6% topical, 48 h) was 209 ± 40 pg/mL. The “Released PGE2 Mean ± Standard deviation” value ([8]; Lactic acid 0.6% topical, 48 h) was 197 ± 79 pg/mL, the “Released IL1-alpha Change” value [8, 10] was “+511%” and the “Released IL8 Change” value [8, 10] was “+169%”. For the same molecule, the “Released PGE2 Change” value [8, 10] was “+584%”, the “Intracellular IL1-alpha Mean ± SD” value ([9]; Lactic acid 0.6% topical, 48 h) was 1044 ± 123.0 pg/mg protein and the “Intracellular IL1RA Mean ± SD” value ([9]; Lactic acid 0.6% topical, 48 h) was 25750 ± 1974 pg/mg protein. The “Intracellular IL8 Mean ± SD” value ([9]; Lactic acid 0.6% topical, 48 h) was 79.20 ± 7.715 pg/mg protein, the “Intracellular IL1-alpha Change” value [9, 10] was “+277%” and the “Intracellular IL1RA Change” value [9, 10] was “+394%”. For the same molecule, the “Intracellular IL8 Change” value [9, 10] was “+113%”.
For CC1(C)[C@@H](O[C@H]2O[C@H](C(=O)[O-])[C@@H](O)[C@H](O)[C@H]2O[C@@H]2O[C@H](C(=O)[O-])[C@@H](O)[C@H](O)[C@H]2O)CC[C@]2(C)[C@H]3C(=O)C=C4[C@@H]5C[C@@](C)(C(=O)O)CC[C@]5(C)CC[C@@]4(C)[C@]3(C)CC[C@@H]12.[K+].[K+] [GLY, Dipotassium glycyrrhizinate], the “C18:1 Mean ± SD, amount normalized to C16:0” value ([5]; GLY 0.005% + lactic acid 0.6%) was 0.2785, the “C18:2 LA Mean ± SD, amount normalized to C16:0” value ([5]; GLY 0.005% + lactic acid 0.6%) was 0.1600 and the “C20:4 AA Mean ± SD, amount normalized to C16:0” value ([5]; GLY 0.005% + lactic acid 0.6%) was 0.0435. For the same molecule, the “C18:1 Change” value [5, 11] was −28%, the “C18:2 LA Change” value [5, 11] was −25% and the “C20:4 AA Change” value [5, 11] was −24%. For the same molecule, the “C18:1 Mean ± SD, amount normalized to C16:0” value ([5]; GLY 0.01% + lactic acid 0.6%) was 0.2680, the “C18:2 LA Mean ± SD, amount normalized to C16:0” value ([5]; GLY 0.01% + lactic acid 0.6%) was 0.1440 and the “C20:4 AA Mean ± SD, amount normalized to C16:0” value ([5]; GLY 0.01% + lactic acid 0.6%) was 0.0395. For the same molecule, the “C18:1 Change” value [5, 12] was −31%, the “C18:2 LA Change” value [5, 12] was −32% and the “C20:4 AA Change” value [5, 12] was −31%. The “Released IL1-alpha Mean ± Standard deviation” value ([8]; GLY 0.005% + lactic acid 0.6%) was 28 ± 10 pg/mL, the “Released IL8 Mean ± Standard deviation” value ([8]; GLY 0.005% + lactic acid 0.6%) was 211 ± 41 pg/mL and the “Released PGE2 Mean ± Standard deviation” value ([8]; GLY 0.005% + lactic acid 0.6%) was 94 ± 36 pg/mL. For the same molecule, the “Released IL1-alpha Change” value [8, 11] was −59%, the “Released IL8 Change” value [8, 11] was “+1%” and the “Released PGE2 Change” value [8, 11] was −52%. For the same molecule, the “Released IL1-alpha Mean ± Standard deviation” value ([8]; GLY 0.01% + lactic acid 0.6%) was 35 ± 16 pg/mL, the “Released IL8 Mean ± Standard deviation” value ([8]; GLY 0.01% + lactic acid 0.6%) was 244 ± 138 pg/mL and the “Released PGE2 Mean ± Standard deviation” value ([8]; GLY 0.01% + lactic acid 0.6%) was 137 ± 83 pg/mL. The “Released IL1-alpha Change” value [8, 12] was −49%, the “Released IL8 Change” value [8, 12] was “+17%” and the “Released PGE2 Change” value [8, 12] was −31%. The “Release of IL1α induced by lactic acid (in words)” value ([8]; concentration not given) was “significantly inhibited”, the “Release of PGE2 induced by lactic acid (in words)” value ([8]; concentration not given) was “significantly inhibited” and the IL1RA/IL1-alpha ratio Mean ± SD ([9]; GLY 0.005% + lactic acid 0.6%) was 25.6 ± 1.29. For the same molecule, the “Intracellular IL1-alpha Mean ± SD” value ([9]; GLY 0.005% + lactic acid 0.6%) was 987.5 ± 101.1 pg/mg protein, the “Intracellular IL1RA Mean ± SD” value ([9]; GLY 0.005% + lactic acid 0.6%) was 25195 ± 1305 pg/mg protein and the “Intracellular IL8 Mean ± SD” value ([9]; GLY 0.005% + lactic acid 0.6%) was 78.39 ± 6.350 pg/mg protein. For the same molecule, the “IL1RA/IL1-alpha ratio Change” value [9, 11] was “+3%”, the “Intracellular IL1-alpha Change” value [9, 11] was −5% and the “Intracellular IL1RA Change” value [9, 11] was −2%. The “Intracellular IL8 Change” value [9, 11] was −1%, the IL1RA/IL1-alpha ratio Mean ± SD ([9]; GLY 0.01% + lactic acid 0.6%) was 19.1 ± 0.212 and the “Intracellular IL1-alpha Mean ± SD” value ([9]; GLY 0.01% + lactic acid 0.6%) was 587.0 ± 63.64 pg/mg protein. For the same molecule, the “Intracellular IL1RA Mean ± SD” value ([9]; GLY 0.01% + lactic acid 0.6%) was 11244 ± 1341 pg/mg protein, the “Intracellular IL8 Mean ± SD” value ([9]; GLY 0.01% + lactic acid 0.6%) was 50.17 ± 3.366 pg/mg protein and the “IL1RA/IL1-alpha ratio Change” value [9, 12] was −23%. For the same molecule, the “Intracellular IL1-alpha Change” value [9, 12] was −44%, the “Intracellular IL1RA Change” value [9, 12] was −56% and the “Intracellular IL8 Change” value [9, 12] was −37%. For the same molecule, the “IL1RA/IL1α ratio (in words)” value ([9]; concentration not given) was “maintained the IL1RA/IL1α ratio”, the “Increase in intracellular IL1RA level induced by lactic acid treatment (in words)” value ([9]; concentration not given) was “significantly inhibited” and the “Increase in intracellular IL1α level induced by lactic acid treatment (in words)” value ([9]; concentration not given) was “significantly inhibited”. For the same molecule, the “Increase in intracellular IL8 level induced by lactic acid treatment (in words)” value ([9]; concentration not given) was “significantly inhibited”.
